The test system of the test is mice (C57BL/6). As to the kind of experiment: Motility of stomach and small intestine (charcoal transit, GI motility). It counts as in vivo. Particulars: 0.3 mg/kg or 3 mg/kg intraperitoneal; 30 minutes after oral charcoal; vs vehicle control mice; FIG. 1.

Protocol: At the same time, control mice (vehicle) to which only a vehicle was administered were prepared, and the same test was carried out using these mice. The motility of stomach and small intestine was measured as follows. That is, charcoal powder was suspended in a 0.5% methyl cellulose solution and the resulting suspension was orally administered to the mice. After 30 minutes, the distance that the charcoal entering into the stomach traveled in the intestinal tract was measured by dissection. At the same time, the total length of the small intestine from the pyloric portion of stomach to the beginning of the cecum was also measured, and the ratio (%) of the distance that the charcoal traveled to the total length of the small intestine was plotted in a graph as a GI (gastrointestinal) motility.

In the case of neuropeptide Y [NPY], the “GI (gastrointestinal) motility: ratio of distance the charcoal traveled to total length of small intestine” value is given as “lower than that of the control mice”.
